Assay results taken from article PMC6384738, “Structure-Function Studies of Polymyxin B Lipononapeptides” (Molecules, 2019).
≈ marks a conversion by molar mass, not a printed value. Where a SMILES comes first, the peptide text is derived from it. Bridges are numbered along the chain shown (N, C = ends). [ ]: non-standard residue; d: D form. The star is where a group is joined. Hexanoyl(6-Ph) = O=C(CCCCCc1ccccc1)*; dDab = NCC[C@@H](N)C(=O)O; Octanoyl = CCCCCCCC(=O)*; Dab = NCC[C@H](N)C(=O)O

Key:
A. baumannii ATCC 19606 = test: microbe, parasite or virus in culture
In short: (§1)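 Values are minimum inhibitory concentrations in mg/L, obtained by serial dilution of compound in broth with the bacterial strain. Polymyxin B, colistin, vancomycin and gentamicin were run alongside as reference antibacterials.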

E. coli ATCC 25922 = test: microbe, parasite or virus in culture
In short: as §1

K. pneumoniae ATCC 13833 = test: microbe, parasite or virus in culture
In short: as §1

[1] = test system: K. pneumoniae ATCC 700603; test: microbe, parasite or virus in culture
In short: as §1

K. pneumoniae BAA 2146 = test: microbe, parasite or virus in culture
In short: as §1

P. aeruginosa ATTC 27853 = test: microbe, parasite or virus in culture
In short: as §1

[2] = test system: P. aeruginosa FADDI PA070; test: microbe, parasite or virus in culture
In short: as §1

S. aureus ATCC 25923 = test: microbe, parasite or virus in culture
In short: as §1

[3] = test system: human proximal tubular epithelial cells (HK-2); test: Cytotoxicity, LDH release assay in HK-2 cells
In short: (§2)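 HK-2 cells seeded 2000 cells/well in DMEM/F12 with 10% FBS, grown 24 h, then exposed to compounds (300 µM to 2.3 µM, 2-fold series; colistin/polymyxin B 1 mM to 7.8 µM) for 24 h at 37 °C. LDH in medium read at 450 nm after 30 min; cytotoxicity % relative to 1% Triton X-100 and untreated cells.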

in vitro = details: human
In short: as §2

[4] = test system: ATCC reference strains (Escherichia coli, Klebsiella pneumoniae, A. baumannii, and P. aeruginosa)
Protocol: All compounds synthesised in this study were assessed for their minimum inhibitory concentrations (MIC, mg/L) by broth microdilution assay against five antibiotic-sensitive and resistant ATCC reference strains covering the Gram-negative ESKAPE pathogens (Escherichia coli, Klebsiella pneumoniae, A. baumannii, and P. aeruginosa) (Table 1, Table 2 and Table 3). Staphylococcus aureus was also included as a representative Gram-positive bacterial strain. […] Polymyxin B 1, colistin 2, vancomycin and gentamicin were used as positive inhibitor comparator compounds. Compounds were counter-screened against human proximal tubular epithelial cells (HK-2), using LDH release as a general indicator of cellular toxicity.

[5] = broth microdilution, 18 h, 37 °C
[6] = ESBL strain, broth microdilution, 18 h
[7] = NDM-1 positive strain, broth microdilution, 18 h
[8] = Pmx-resistant clinical isolate, broth microdilution, 18 h
[9] = Gram-positive strain, broth microdilution, 18 h

| MIC A. baumannii ATCC 19606 (A. baumannii ATCC 19606; ATCC 19606, 18 h) | MIC E. coli ATCC 25922 (E. coli ATCC 25922; ATCC 25922, 18 h) | MIC K. pneumoniae ATCC 13833 (K. pneumoniae ATCC 13833; ATCC 13833, 18 h) | MIC K. pneumoniae ATCC 700603 ([1]; ATCC 700603, 18 h) | MIC K. pneumoniae BAA 2146 (K. pneumoniae BAA 2146; BAA 2146, 18 h) | MIC P. aeruginosa ATTC 27853 (P. aeruginosa ATTC 27853; ATTC 27853, 18 h) | MIC S. aureus ATCC 25923 (S. aureus ATCC 25923; ATCC 25923, 18 h) | Molecule | CC50 at 24 h (in vitro) | also measured |
| --- | --- | --- | --- | --- | --- | --- | --- | --- | --- |
| >32 µg/mL | >32 µg/mL | >32 µg/mL | >32 µg/mL | >32 µg/mL | >32 µg/mL | >32 µg/mL | CCCCCCCC(=O)N[C@H](C(=O)N[C@@H](CCN)C(=O)N[C@@H]1CCNC(=O)[C@H]([C@@H](C)O)NC(=O)[C@H](CCN)NC(=O)[C@H](CCN)NC(=O)[C@H](CC(C)C)NC(=O)[C@@H](Cc2ccccc2)NC(=O)[C@H](CCN)NC1=O)[C@@H](C)O [Compound 19] (Octanoyl-T[Dab][dDab][Dab][dF]L[Dab][Dab]T; lactam 3-C) | > 300 µM | MIC for all strains [4]: > 32 µg/mL |
| 2 µg/mL (≈ 1.76 µM) | 0.5 µg/mL (≈ 0.44 µM) | 4 µg/mL (≈ 3.52 µM) | 1 µg/mL (≈ 0.879 µM) | 0.5 µg/mL (≈ 0.44 µM) | 2 µg/mL (≈ 1.76 µM) | >32 µg/mL | CC(C)C[C@@H]1NC(=O)[C@@H](Cc2ccccc2)NC(=O)[C@H](CCN)NC(=O)[C@@H](NC(=O)[C@@H](CCN)NC(=O)[C@@H](NC(=O)CCCCCc2ccccc2)[C@@H](C)O)CCNC(=O)[C@H]([C@@H](C)O)NC(=O)[C@H](CCN)NC(=O)[C@H](CCN)NC1=O [Compound 25] ({Hexanoyl(6-Ph)}-T[dDab][Dab][Dab][dF]L[Dab][Dab]T; lactam 3-C) | > 300 µM | MIC P. aeruginosa FADDI PA070 ([2]; FADDI PA070, 18 h): 8 µg/mL (≈ 7.03 µM); MIC against the ATCC strains [4]: 0.5 to 4 µg/mL |
| >32 µg/mL | – | >32 µg/mL | 32 µg/mL (≈ 29.7 µM) | 16 µg/mL (≈ 14.9 µM) | 16 µg/mL (≈ 14.9 µM) | >32 µg/mL | CCCCCCCC(=O)N[C@H](C(=O)N[C@@H](CO)C(=O)N[C@H]1CCNC(=O)[C@H]([C@@H](C)O)NC(=O)[C@H](CCN)NC(=O)[C@H](CCN)NC(=O)[C@H](CC(C)C)NC(=O)[C@@H](Cc2ccccc2)NC(=O)[C@H](CCN)NC1=O)[C@@H](C)O [Compound 35] (Octanoyl-TS[Dab][Dab][dF]L[Dab][Dab]T; lactam 3-C) | 220 µM | MIC for most strains [4]: 16 to 32 µg/mL |

Further lines, the molecule ahead of its results:

| Molecule | MIC A. baumannii ATCC 19606 (A. baumannii ATCC 19606; ATCC 19606, 18 h) | MIC E. coli ATCC 25922 (E. coli ATCC 25922; ATCC 25922, 18 h) | MIC K. pneumoniae ATCC 13833 (K. pneumoniae ATCC 13833; ATCC 13833, 18 h) | MIC K. pneumoniae ATCC 700603 ([1]; ATCC 700603, 18 h) | MIC K. pneumoniae BAA 2146 (K. pneumoniae BAA 2146; BAA 2146, 18 h) | MIC P. aeruginosa ATTC 27853 (P. aeruginosa ATTC 27853; ATTC 27853, 18 h) | MIC S. aureus ATCC 25923 (S. aureus ATCC 25923; ATCC 25923, 18 h) | CC50 at 24 h (in vitro) | also measured |
| --- | --- | --- | --- | --- | --- | --- | --- | --- | --- |
| polymyxin B [PmxB 1, reference compound] | – | – | – | – | – | – | – | – | MIC A. baumannii ATCC 19606 (A. baumannii ATCC 19606; broth microdilution, 18 h): 0.25 µg/mL; MIC E. coli ATCC 25922 (E. coli ATCC 25922; [5]): 1 µg/mL; MIC K. pneumoniae ATCC 13833 (K. pneumoniae ATCC 13833; broth microdilution, 18 h): 1 µg/mL; MIC K. pneumoniae ATCC 700603 [1, 6]: 0.5 µg/mL; MIC K. pneumoniae BAA 2146 (K. pneumoniae BAA 2146; [7]): 0.25 µg/mL; MIC P. aeruginosa ATTC 27853 (P. aeruginosa ATTC 27853; broth microdilution, 18 h): 0.5 µg/mL; MIC P. aeruginosa FADDI PA070 [2, 8]: 32 µg/mL; MIC S. aureus ATCC 25923 (S. aureus ATCC 25923; [9]): >32 µg/mL; CC50 ([3]; read-out: CC50 HK-2, LDH release, 24 h incubation): > 300 µM |
| colistin [Col 2, reference compound] | – | – | – | – | – | – | – | – | MIC A. baumannii ATCC 19606 (A. baumannii ATCC 19606; broth microdilution, 18 h): 0.25 µg/mL; MIC E. coli ATCC 25922 (E. coli ATCC 25922; [5]): 0.25 µg/mL; MIC K. pneumoniae ATCC 13833 (K. pneumoniae ATCC 13833; broth microdilution, 18 h): 0.25 µg/mL; MIC K. pneumoniae ATCC 700603 [1, 6]: 0.25 µg/mL; MIC K. pneumoniae BAA 2146 (K. pneumoniae BAA 2146; [7]): 0.25 µg/mL; MIC P. aeruginosa ATTC 27853 (P. aeruginosa ATTC 27853; broth microdilution, 18 h): 0.5 µg/mL; MIC P. aeruginosa FADDI PA070 [2, 8]: >32 µg/mL; MIC S. aureus ATCC 25923 (S. aureus ATCC 25923; [9]): >32 µg/mL; CC50 [3]: > 300 µM |
| CCCCCCCC(=O)N[C@@H](CCN)C(=O)N[C@H](C(=O)N[C@@H](CCN)C(=O)N[C@H]1CCNC(=O)[C@H]([C@@H](C)O)NC(=O)[C@H](CCN)NC(=O)[C@H](CCN)NC(=O)[C@H](CC(C)C)NC(=O)[C@@H](Cc2ccccc2)NC(=O)[C@H](CCN)NC1=O)[C@@H](C)O [PmxB3, polymyxin B3, reference compound] (Octanoyl-[Dab]T[Dab][Dab][Dab][dF]L[Dab][Dab]T; lactam 4-C) | – | – | 2 µg/mL (≈ 1.68 µM) | 1 µg/mL (≈ 0.841 µM) | 0.5 µg/mL (≈ 0.42 µM) | 0.5 µg/mL (≈ 0.42 µM) | >32 µg/mL | > 300 µM | fold more active than nonapeptide 8 ([4]; MIC comparison against most strains): 2- to 4 fold |
| CCCCCCCC(=O)N[C@H](C(=O)N[C@@H](CCN)C(=O)N[C@H]1CCNC(=O)[C@H]([C@@H](C)O)NC(=O)[C@H](CCN)NC(=O)[C@H](CCN)NC(=O)[C@H](CC(C)C)NC(=O)[C@@H](Cc2ccccc2)NC(=O)[C@H](CCN)NC1=O)[C@@H](C)O [Compound 8] (Octanoyl-T[Dab][Dab][Dab][dF]L[Dab][Dab]T; lactam 3-C) | – | – | 1 µg/mL (≈ 0.918 µM) | 2 µg/mL (≈ 1.84 µM) | 2 µg/mL (≈ 1.84 µM) | 0.5 µg/mL (≈ 0.459 µM) | >32 µg/mL | 209 µM | MIC for most strains [4]: 1 to 2 µg/mL |
| CCCCCCCC(=O)N[C@@H](CCC(=O)O)C(=O)N[C@H](CCN)C(=O)N[C@H]1CCNC(=O)[C@H]([C@@H](C)O)NC(=O)[C@H](CCN)NC(=O)[C@H](CCN)NC(=O)[C@H](CC(C)C)NC(=O)[C@@H](Cc2ccccc2)NC(=O)[C@H](CCN)NC1=O [Compound 32] (Octanoyl-E[dDab][Dab][Dab][dF]L[Dab][Dab]T; lactam 3-C) | >32 µg/mL | >32 µg/mL | >32 µg/mL | 32 µg/mL (≈ 28.6 µM) | >32 µg/mL | 4 µg/mL (≈ 3.58 µM) | >32 µg/mL | > 300 µM | MIC P. aeruginosa FADDI PA070 ([2]; FADDI PA070, 18 h): >32 µg/mL |
